These results are taken from US20100120789A1, “Compound” (priority 2005, published 2010).

The target in the first experiment is T1, Human 11β-HSD1 (Homo sapiens, UniProt P28845). Nature of the experiment: 11β-HSD1 HTRF assay (human liver microsome fractions, cortisol by HTRF). Format: biochemical. The settings on record: 10 μM compound; human liver microsomes. The procedure: 11β-HSD1 HTRF Assay Protocol
T1 sequence (P28845 whole entry): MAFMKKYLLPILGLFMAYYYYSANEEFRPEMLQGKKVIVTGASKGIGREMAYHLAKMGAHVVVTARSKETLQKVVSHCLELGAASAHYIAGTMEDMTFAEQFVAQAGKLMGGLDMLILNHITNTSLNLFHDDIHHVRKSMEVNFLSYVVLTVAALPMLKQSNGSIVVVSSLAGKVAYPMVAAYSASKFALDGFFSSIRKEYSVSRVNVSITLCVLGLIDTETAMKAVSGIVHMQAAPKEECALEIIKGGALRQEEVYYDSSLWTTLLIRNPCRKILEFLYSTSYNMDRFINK
The 11β-HSD Type 1 assay was carried out at room temperature in 96 well microtitre plates in a total volume of 40 μl. Assay buffer contained 30 mM Tris.HCl, 1 mM EDTA, pH 7.2. Inhibitor compounds were tested at varying concentrations at a final Dimethyl Sulphoxide concentration of 1%. Compounds were usually tested at 10 μM. The substrate mixture contained cortisone, NADPH and glucose-6-phosphate at final concentrations of 1 μM, 180 μM and 1 mM respectively. Assays were started by the addition of 10p1 human liver microsome fractions, 20 mg per ml protein, containing 11β-HSD Type 1, diluted 1 to 40 prior to use. Following mixing microtitre plates were shaken for 30 minutes. Reactions were stopped by the addition of 10 μl 1 mM Glyccheritinnic acid solution. Production of Cortisol was measured by Homogenous Time Resolved Fluorescence using a cortisol assay kit; Cisbio International Cortisol HTRF kit (62CORPEB), following the manufacturer's protocol.
(In general: Time-resolved FRET reads energy transfer from a long-lived donor to a nearby acceptor.)
Molecule `O=C(CSc1cc(Cl)ccc1Cl)C12CC3CC(CC(C3)C1)C2` [compound 1538] yielded an inhibition at 10 µM above 60%.

Molecule `O=S(=O)(Cc1ccc(Cl)cc1)NC12CC3CC(CC(C3)C1)C2` [compound 1499] had an inhibition at 10 µM of 20 to 60%. Molecule `Cc1nc2c(NC(=O)CC34CC5CC(CC(C5)C3)C4)c(C)ccc2s1` [compound 1572] had an inhibition at 10 µM above 60%. `O=C(C[S+]([O-])Cc1ccc(Cl)cc1)C12CC3CC(CC(C3)C1)C2` (stereo not shown) [compound 1628]: the inhibition at 10 µM was above 60%.

As for `O=C(CC12CC3CC(CC(C3)C1)C2)NCc1ccccn1` [compound 1565], the inhibition at 10 µM was above 60%. With `CN(Cc1cccs1)C(=O)C12CC3CC(CC(C3)C1)C2` [compound 1576], the inhibition at 10 µM was above 60%.

Take `O=C(NCCCn1ccnc1)C12CC3CC(CC(C3)C1)C2` [compound 1580]: the inhibition at 10 µM fell in the range of 20 to 60%.

Turning to `O=C(CS(=O)(=O)Cc1ccc(Cl)cc1)C12CC3CC(CC(C3)C1)C2` [compound 1632], the inhibition at 10 µM was above 60%. The molecule `O=C(CC12CC3CC(CC(C3)C1)C2)NCCc1cccs1` [compound 1570] had an inhibition at 10 µM above 60%.

Molecule `Cc1nc2cc(NCC(=O)C34CC5CC(CC(C5)C3)C4)ccc2s1` [compound 1487] gave an inhibition at 10 µM above 60%. The same measure, in the same setting: to `O=C(CC12CC3CC(CC(C3)C1)C2)NCc1cccs1` [compound 1564] belongs above 60%. Turning to `Cn1cnc(CNC(=O)C23CC4CC(CC(C4)C2)C3)c1` [compound 1577], the inhibition at 10 µM was above 60%.

In turn, `O=S(=O)(NC12CC3CC(CC(C3)C1)C2)c1cccs1` [compound 1573] returned an inhibition at 10 µM above 60%.

The molecule `Clc1ccc(-c2noc(C34CC5CC(CC(C5)C3)C4)n2)cc1` [compound 1627] returned an inhibition at 10 µM of 20 to 60%.

The next experiment deals with T1, Human 11β-HSD1. Nature of the experiment: 11β-HSD1 HEK assay (whole HEK 293 cells stably transfected with HSD11B1, SPA). It is filed as cell-based. Further details: expressed in transfected cells; host or cells: HEK 293. To be noted: HEK293, read-out: % INHIBITION of Human 11 β-HSD1 at 10 μM (HEK). How it is done: 11β-HSD1 HEK Assay Protocol (Cell Based Assay)
11β-HSD1 activity is measured in whole HEK 293 cells stably transfected with the HSD11B1 gene. Cells are incubated in 96-well microplates in the presence of tritiated substrate. Enzyme activity is determined by measuring the amount of tritated product by scintillation proximity assay (SPA). Assay plates contain internal high and low controls to allow calculation of percentage inhibition.
2. When the cells are 80% confluent the medium is removed from each well. 100 μl fresh, serum-free, medium containing ^3H-cortisone and test compound in 1% DMSO is added to each well*. Control wells are also dispensed.
3. The plate is incubated at […] for the required time period.
4. 50 μl of media is removed from each well and transferred to a microplate containing 100 μl of a pre-incubated mixture of anti-cortisol antibody and SPA bead. The mixture is incubated with gentle shaking until equilibrium is reached, before transferring to a scintillation counter to establish the enzyme activity in each sample.
10 μl of compound is dispensed into each well of a 96-well microplate in 10% DMSO at 100 μM concentration. 90 μl media containing ^3H-cortisone is added to each well. The compound/media/substrate mixture is then transferred to the assay plate containing the cells.
Regarding `O=C(CSc1cc(Cl)ccc1Cl)C12CC3CC(CC(C3)C1)C2` [compound 1538], the inhibition at 10 µM was above 60%. The same measure, in the same setting: to `O=S(=O)(Cc1ccc(Cl)cc1)NC12CC3CC(CC(C3)C1)C2` [compound 1499] belongs below 20%; to `Cc1nc2c(NC(=O)CC34CC5CC(CC(C5)C3)C4)c(C)ccc2s1` [compound 1572], below 20%; to `O=C(C[S+]([O-])Cc1ccc(Cl)cc1)C12CC3CC(CC(C3)C1)C2` (stereo not shown) [compound 1628], above 60%. On the same count and under the same terms, to `O=C(CC12CC3CC(CC(C3)C1)C2)NCc1ccccn1` [compound 1565] belongs 20 to 60%. With `O=C(NCCCn1ccnc1)C12CC3CC(CC(C3)C1)C2` [compound 1580], the inhibition at 10 µM is 20 to 60%. For the molecule `O=C(CS(=O)(=O)Cc1ccc(Cl)cc1)C12CC3CC(CC(C3)C1)C2` [compound 1632], the inhibition at 10 µM was above 60%. Regarding `O=C(CC12CC3CC(CC(C3)C1)C2)NCCc1cccs1` [compound 1570], the inhibition at 10 µM is above 60%.

`Cc1nc2cc(NCC(=O)C34CC5CC(CC(C5)C3)C4)ccc2s1` [compound 1487]: the inhibition at 10 µM was above 60%. With `O=C(CC12CC3CC(CC(C3)C1)C2)NCc1cccs1` [compound 1564], the inhibition at 10 µM is above 60%. `Cn1cnc(CNC(=O)C23CC4CC(CC(C4)C2)C3)c1` [compound 1577]: the inhibition at 10 µM was above 60%. With `O=C(NC12CC3CC(CC(C3)C1)C2)OCc1cccs1` [compound 1711], the inhibition at 10 µM is above 60%. Regarding `O=C(NCc1cccs1)C1CCCCC1` [compound 1638], the inhibition at 10 µM fell in the range of 20 to 60%.

As for `CN(Cc1cccs1)C(=O)CC(C)(C)C` [compound 1694], the inhibition at 10 µM was above 60%.

As for `Cc1ccc(Cc2noc(C34CC5CC(CC(C5)C3)C4)n2)cc1` [compound 1660], the inhibition at 10 µM lay in the range of 20 to 60%. As to `CN(Cc1cccs1)C(=O)C(C)(C)C` [compound 1695], the inhibition at 10 µM was below 20%. Take `CC12CC3CC(C)(C1)CC(C(=O)NCc1cccs1)(C3)C2` [compound 1671]: the inhibition at 10 µM was above 60%. On to `O=C(NCc1cccs1)[C@H]1CC2C=CC1C2` (stereo partly shown) [compound 1706], for which the inhibition at 10 µM was in the range of 20 to 60%. Consider `CN(Cc1cccs1)C(=O)C12CC3CC(CC(C3)C1)C2` [compound 1700], for which the inhibition at 10 µM was above 60%. The same measure, in the same setting: the result for `CC1(C(=O)NCCc2cccs2)CCCCC1` [compound 1655] reads above 60%; that for `CC1(C(=O)NCc2cccs2)CC1` [compound 1641], 20 to 60%.

With `O=C(NCc1csc2ccccc12)C12CC3CC(CC(C3)C1)C2` [compound 1689], the inhibition at 10 µM fell in the range of 20 to 60%.

`O=C(CC12CC3CC(CC(C3)C1)C2)NCc1ccco1` [compound 1662]: the inhibition at 10 µM was above 60%. Same read-out and setting: the result for `O=C(NCc1cccs1)C12CC3CC(CC(O)(C3)C1)C2` [compound 1675] reads below 20%; that for `CC(C)(C)C(=O)NCc1cccs1` [compound 1673], 20 to 60%; that for `CC(C)(C)C(=O)NCCc1cccs1` [compound 1674], 20 to 60%.

For the molecule `O=C(NCCc1cccs1)NC12CC3CC(CC(C3)C1)C2` [compound 1714], the inhibition at 10 µM is above 60%. `Cc1c(Cl)cccc1S(=O)(=O)NCC12CC3CC(CC(C3)C1)C2` [compound 1370]: the inhibition at 10 µM lay in the range of 20 to 60%.

On to `O=C(NCCc1cccs1)C12CC3CC(CC1C3)C2` [compound 1656], for which the inhibition at 10 µM was above 60%. In the case of `CN(Cc1cccs1)C(=O)C1(C)CC1` [compound 1697], the inhibition at 10 µM was below 20%. With `CN(Cc1cccs1)C(=O)C(C)(c1ccccc1)c1ccccc1` [compound 1698], the inhibition at 10 µM lay in the range of 20 to 60%. Same read-out and setting: to `O=C(N1CCc2sccc2C1)C12CC3CC(CC(C3)C1)C2` [compound 1721] belongs above 60%.

On to `Cc1nc2cc(NC(=O)CC34CC5CC(CC(C5)C3)C4)ccc2s1` [compound 1566], for which the inhibition at 10 µM lay in the range of 20 to 60%. In the case of `O=C(NCCc1cccs1)C12CC3CC(CC(O)(C3)C1)C2` [compound 1676], the inhibition at 10 µM was above 60%. In the case of `O=C(NCCc1cccs1)C1(c2ccc(Cl)cc2)CCCC1` [compound 1651], the inhibition at 10 µM was below 20%. With `CN(Cc1cccs1)C(=O)[C@@H]1CC2C=CC1C2` (stereo partly shown) [compound 1710], the inhibition at 10 µM is above 60%.

`CC(C(=O)NCCc1cccs1)(c1ccccc1)c1ccccc1` [compound 1650]: the inhibition at 10 µM is below 20%. As for `CN(Cc1cccs1)C(=O)C1CCCCC1` [compound 1693], the inhibition at 10 µM was above 60%. As to `c1csc(Cc2noc(C34CC5CC(CC(C5)C3)C4)n2)c1` [compound 1687], the inhibition at 10 µM lay within 20 to 60%.

`O=C(NCc1cccs1)NC12CC3CC(CC(C3)C1)C2` [compound 1713]: the inhibition at 10 µM fell in the range of 20 to 60%.

With `Cn1cccc1CNC(=O)CC12CC3CC(CC(C3)C1)C2` [compound 1663], the inhibition at 10 µM was above 60%.

In the case of `CC1(C(=O)NCCc2cccs2)CC1` [compound 1654], the inhibition at 10 µM lay within 20 to 60%. As to `Cc1ccc(Cc2noc(CC34CC5CC(CC(C5)C3)C4)n2)cc1` [compound 1664], the inhibition at 10 µM was in the range of 20 to 60%. For `CC(C)(C)CC(=O)NCc1cccs1` [compound 1639], the inhibition at 10 µM was 20 to 60%. In the case of `O=S(=O)(NCC12CC3CC(CC(C3)C1)C2)c1ccc(-c2ccccc2)cc1` [compound 1371], the inhibition at 10 µM fell in the range of 20 to 60%.

As to `CN(Cc1cccs1)C(=O)CC12CC3CC(CC(C3)C1)C2` [compound 1661], the inhibition at 10 µM was above 60%. Same read-out and setting: the result for `O=C(NC12CC3CC(CC(C3)C1)C2)OCCc1cccs1` [compound 1712] reads above 60%.

Staying with this experiment, now noted: HEK293; read-out: IC50 (nM) Inhibition of Human 11β-HSD1 (HEK293).
In the case of `NC(=O)c1cccc(OCC(=O)C23CC4CC(CC(C4)C2)C3)c1` [Compound 9], the IC50 worked out at 1050 nM. With `CCNC(=O)Cc1ccc(OCC(=O)C23CC4CC(CC(C4)C2)C3)cc1` [Compound 16], the IC50 is 912 nM.

Turning to `CCNC(=O)c1cccc(OCC(=O)C23CC4CC(CC(C4)C2)C3)c1` [Compound 11], the IC50 is 343 nM.

Regarding `CNC(=O)c1cccc(OCC(=O)C23CC4CC(CC(C4)C2)C3)c1` [Compound 10], the IC50 came out at 68 nM. On to `NC(=O)c1ccc(OCC(=O)C23CC4CC(CC(C4)C2)C3)cc1` [Compound 1], for which the IC50 was 117 nM. As for `CNC(=O)c1ccc(COCC(=O)C23CC4CC(CC(C4)C2)C3)cc1` [Compound 18], the IC50 came out at 250 nM.

Broadly, the inhibition is how much of the control response was suppressed. One may read the IC50 as the concentration that inhibits the measured activity by half.
